Assay results as given in PubChem BioAssay (NCI).
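How tested: cells in 96-well plates exposed to compound for 48 hours at five concentrations. The concentration for full growth arrest is given as TGI.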

test system: CAKI-1 renal; experiment: inhibition of tumour cell growth, NCI panel, 48 h

Going from CCOC(=O)C1=C(OC(OCC)C(CC)[Se]c2ccccc2)CCC1 (stereo not given) to CCOC(=O)CCC(NC(=O)c1ccc(NC(OC)c2nc3cc(C(F)(F)F)ccc3nc2-c2ccccc2)cc1)C(=O)OCC (stereo not given), the TGI falls from > 100 µM to 31.1 µM.

O=[N+]([O-])c1cccc(Nc2nc(Cl)nc(Cl)n2)c1 and COc1ccc2[nH]c3c(c2c1)[C@H]1CCC(C(C)(C)C)C[C@H]1[C@H]1C(=O)N(c2ccccc2)C(=O)[C@@H]31 (stereo not given in full) cannot be ordered by TGI: > 100 µM for the first, > 36.6 µM for the second.

With CCCCOC/N=C(/N)NC#N the TGI was > 100 µM.

test system: HL-60(TB) leukemia; experiment: inhibition of tumour cell growth, NCI panel, 48 h

CCOC(=O)C1=C(OC(OCC)C(CC)[Se]c2ccccc2)CCC1 (stereo not given) and CCCc1cc(OC(=O)c2c(O)cc(OC)cc2CCC)cc(O)c1C(=O)O are within 1.5-fold of each other in TGI: 39.1 µM for the first, 52.7 µM for the second.

Cc1ccc(-c2cc(-c3ccccc3)c(C#N)c(=O)[nH]2)cc1 and COc1ccc2[nH]c3c(c2c1)[C@H]1CCC(C(C)(C)C)C[C@H]1[C@H]1C(=O)N(c2ccccc2)C(=O)[C@@H]31 (stereo not given in full) cannot be ordered by TGI: > 100 µM for the first, > 100 µM for the second.

C=C1C2=C(CCCC2)C(=O)OC12CCCCC2 and CCCCOC/N=C(/N)NC#N cannot be ordered by TGI: > 100 µM for the first, > 100 µM for the second.

test system: HOP-62 NSCLC; experiment: inhibition of tumour cell growth, NCI panel, 48 h

First: CCOC(=O)C1=C(OC(OCC)C(CC)[Se]c2ccccc2)CCC1 (stereo not given)
Second: CCOC(=O)CCC(NC(=O)c1ccc(NC(OC)c2nc3cc(C(F)(F)F)ccc3nc2-c2ccccc2)cc1)C(=O)OCC (stereo not given)
The TGI of the first is higher: > 100 µM for the first, 31.2 µM for the second.

CCCc1cc(OC(=O)c2c(O)cc(OC)cc2CCC)cc(O)c1C(=O)O and COc1ccc2[nH]c3c(c2c1)[C@H]1CCC(C(C)(C)C)C[C@H]1[C@H]1C(=O)N(c2ccccc2)C(=O)[C@@H]31 (stereo not given in full) are within 1.5-fold of each other in TGI: 35.6 µM for the first, 38.3 µM for the second.

Cc1ccc(-c2cc(-c3ccccc3)c(C#N)c(=O)[nH]2)cc1 and O=[N+]([O-])c1cccc(Nc2nc(Cl)nc(Cl)n2)c1 cannot be ordered by TGI: > 100 µM for the first, > 100 µM for the second.

C=C1C2=C(CCCC2)C(=O)OC12CCCCC2 and CCCCOC/N=C(/N)NC#N cannot be ordered by TGI: > 100 µM for the first, > 100 µM for the second.

test system: IGROV1 ovarian; experiment: inhibition of tumour cell growth, NCI panel, 48 h

Compared with CCOC(=O)C1=C(OC(OCC)C(CC)[Se]c2ccccc2)CCC1 (stereo not given), CCOC(=O)CCC(NC(=O)c1ccc(NC(OC)c2nc3cc(C(F)(F)F)ccc3nc2-c2ccccc2)cc1)C(=O)OCC (stereo not given) is lower in TGI: > 100 µM for the first, 33.3 µM for the second.

CCCc1cc(OC(=O)c2c(O)cc(OC)cc2CCC)cc(O)c1C(=O)O and COc1ccc2[nH]c3c(c2c1)[C@H]1CCC(C(C)(C)C)C[C@H]1[C@H]1C(=O)N(c2ccccc2)C(=O)[C@@H]31 (stereo not given in full) cannot be ordered by TGI: > 100 µM for the first, > 100 µM for the second.

Cc1ccc(-c2cc(-c3ccccc3)c(C#N)c(=O)[nH]2)cc1 and C=C1C2=C(CCCC2)C(=O)OC12CCCCC2 cannot be ordered by TGI: > 100 µM for the first, > 100 µM for the second.

In the case of CCCCOC/N=C(/N)NC#N, the TGI is reported as > 100 µM.

test system: NCI-H226 lung; experiment: inhibition of tumour cell growth, NCI panel, 48 h

Going from CCOC(=O)C1=C(OC(OCC)C(CC)[Se]c2ccccc2)CCC1 (stereo not given) to CCOC(=O)CCC(NC(=O)c1ccc(NC(OC)c2nc3cc(C(F)(F)F)ccc3nc2-c2ccccc2)cc1)C(=O)OCC (stereo not given), the TGI falls from 53.5 µM to 35 µM (1.5-fold).

First: Cc1ccc(-c2cc(-c3ccccc3)c(C#N)c(=O)[nH]2)cc1
Second: COc1ccc2[nH]c3c(c2c1)[C@H]1CCC(C(C)(C)C)C[C@H]1[C@H]1C(=O)N(c2ccccc2)C(=O)[C@@H]31 (stereo not given in full)
The TGI of the first is higher: > 100 µM for the first, 81.9 µM for the second.

O=[N+]([O-])c1cccc(Nc2nc(Cl)nc(Cl)n2)c1 and C=C1C2=C(CCCC2)C(=O)OC12CCCCC2 cannot be ordered by TGI: > 100 µM for the first, > 100 µM for the second.

For CCCCOC/N=C(/N)NC#N, the TGI was > 100 µM.

test system: NCI-H23 lung; experiment: inhibition of tumour cell growth, NCI panel, 48 h

CCOC(=O)C1=C(OC(OCC)C(CC)[Se]c2ccccc2)CCC1 (stereo not given) and CCOC(=O)CCC(NC(=O)c1ccc(NC(OC)c2nc3cc(C(F)(F)F)ccc3nc2-c2ccccc2)cc1)C(=O)OCC (stereo not given) are within 1.5-fold of each other in TGI: 27.5 µM for the first, 31.5 µM for the second.

Going from CCCc1cc(OC(=O)c2c(O)cc(OC)cc2CCC)cc(O)c1C(=O)O to COc1ccc2[nH]c3c(c2c1)[C@H]1CCC(C(C)(C)C)C[C@H]1[C@H]1C(=O)N(c2ccccc2)C(=O)[C@@H]31 (stereo not given in full), the TGI rises from 42.8 µM to > 52.1 µM.

Cc1ccc(-c2cc(-c3ccccc3)c(C#N)c(=O)[nH]2)cc1 and O=[N+]([O-])c1cccc(Nc2nc(Cl)nc(Cl)n2)c1 cannot be ordered by TGI: > 100 µM for the first, > 100 µM for the second.

C=C1C2=C(CCCC2)C(=O)OC12CCCCC2 and CCCCOC/N=C(/N)NC#N cannot be ordered by TGI: > 100 µM for the first, > 100 µM for the second.

test system: OVCAR-3 ovarian; experiment: inhibition of tumour cell growth, NCI panel, 48 h

First: CCOC(=O)C1=C(OC(OCC)C(CC)[Se]c2ccccc2)CCC1 (stereo not given)
Second: CCOC(=O)CCC(NC(=O)c1ccc(NC(OC)c2nc3cc(C(F)(F)F)ccc3nc2-c2ccccc2)cc1)C(=O)OCC (stereo not given)
The TGI of the first is 1.9-fold higher: 69.3 µM for the first, 35.8 µM for the second.

CCCc1cc(OC(=O)c2c(O)cc(OC)cc2CCC)cc(O)c1C(=O)O and COc1ccc2[nH]c3c(c2c1)[C@H]1CCC(C(C)(C)C)C[C@H]1[C@H]1C(=O)N(c2ccccc2)C(=O)[C@@H]31 (stereo not given in full) cannot be ordered by TGI: 61.2 µM for the first, > 58.9 µM for the second.

Cc1ccc(-c2cc(-c3ccccc3)c(C#N)c(=O)[nH]2)cc1 and O=[N+]([O-])c1cccc(Nc2nc(Cl)nc(Cl)n2)c1 cannot be ordered by TGI: > 100 µM for the first, > 100 µM for the second.

C=C1C2=C(CCCC2)C(=O)OC12CCCCC2 and CCCCOC/N=C(/N)NC#N cannot be ordered by TGI: > 100 µM for the first, > 100 µM for the second.

test system: OVCAR-5 ovarian; experiment: inhibition of tumour cell growth, NCI panel, 48 h

Compared with CCOC(=O)C1=C(OC(OCC)C(CC)[Se]c2ccccc2)CCC1 (stereo not given), CCOC(=O)CCC(NC(=O)c1ccc(NC(OC)c2nc3cc(C(F)(F)F)ccc3nc2-c2ccccc2)cc1)C(=O)OCC (stereo not given) is 2.2-fold lower in TGI: 69.6 µM for the first, 31.5 µM for the second.

CCCc1cc(OC(=O)c2c(O)cc(OC)cc2CCC)cc(O)c1C(=O)O and COc1ccc2[nH]c3c(c2c1)[C@H]1CCC(C(C)(C)C)C[C@H]1[C@H]1C(=O)N(c2ccccc2)C(=O)[C@@H]31 (stereo not given in full) cannot be ordered by TGI: > 100 µM for the first, > 100 µM for the second.

Cc1ccc(-c2cc(-c3ccccc3)c(C#N)c(=O)[nH]2)cc1 and O=[N+]([O-])c1cccc(Nc2nc(Cl)nc(Cl)n2)c1 cannot be ordered by TGI: > 100 µM for the first, > 100 µM for the second.

C=C1C2=C(CCCC2)C(=O)OC12CCCCC2 and CCCCOC/N=C(/N)NC#N cannot be ordered by TGI: > 100 µM for the first, > 100 µM for the second.

test system: RPMI-8226 leukemia; experiment: inhibition of tumour cell growth, NCI panel, 48 h

CCOC(=O)C1=C(OC(OCC)C(CC)[Se]c2ccccc2)CCC1 (stereo not given) and CCCc1cc(OC(=O)c2c(O)cc(OC)cc2CCC)cc(O)c1C(=O)O are within 1.5-fold of each other in TGI: 53.2 µM for the first, 60.7 µM for the second.

With Cc1ccc(-c2cc(-c3ccccc3)c(C#N)c(=O)[nH]2)cc1 the TGI was > 100 µM.
